According to paper PMC6271036, “Antimalarial Evaluation of the Chemical Constituents of Hairy Root Culture of Bixa orellana L” (Molecules, 2014):
Entries after “also recorded” stand apart in the source; their conditions may differ.

Legend:
[1] = test system: malaria strains 3D7 and K1; test: in vitro anti-plasmodium activity, strain not told apart; assay type: cell-based, Plasmodium falciparum
Experimental: (§1) The crude extract from culture medium and roots (compound 17), a combination of MeJA derivatives (compound 16), and its individual isolated components were tested in vitro for anti-plasmodium activity against malaria strains 3D7 and K1, as described in previously developed assays. Pure compounds were prepared as 10 mM or 2 mM stock solutions in DMSO.
Parasites were grown in Petri dishes in the presence of fresh group O-positive erythrocytes (hematocrit 4%–6%) in RPMI 1640 (pH 7.3) supplemented with 0.5% AlbuMAX II, 25 mM HEPES, 25 mM NaHCO3, 100 μg/mL hypoxanthine, and 5 μg/mL gentamycin. Cultures were incubated at 37 °C with 5% O2 and 5% CO2. Compounds were prepared as 10 mM stock solutions in DMSO (except compound 18) to measure EC50. The stock solutions were plated in 384-well plates, serially diluted (1:3) in DMSO. Compounds were then transferred to a 384-well assay plate containing 20 μL of RPMI 1640 with 5 μg/mL gentamycin by using a 384-head pin tool. Twenty μL of a synchronized culture suspension (1% rings, 4% hematocrit) was added to each well (final hematocrit and parasitemia, of 2% and 1%, respectively). The final DMSO concentration was 0.65%. Assay plates were incubated for 72 h and parasitemia was measured by using a previously described DNA stain-based assay. The MAR3D7 growth inhibition assay was used for the chloroquine-sensitive 3D7 strain of P. falciparum, and quantified growth by using DNA dyes. The experiment required a total of 96 h, including a 72 h incubation with test compounds. Positive controls were chloroquine and mefloquine. The MARK1 growth inhibition assay was used for the K1 strain of P. falciparum, known to be resistant to both chloroquine and pyrimethamine due to expression of the chloroquine resistance transporter and upregulation of the multi-drug resistance efflux pump. Growth was quantitated by using DNA dyes. The experiment required a total of 96 h, including a 72 h incubation with test compounds. Positive controls were chloroquine and mefloquine.

[2] = test system: W2 strain of P. falciparum; parameters: method as in earlier work; conditions: 15 mg/Kg, mice; cited from earlier work
[3] = test system: chloroquine-sensitive 3D7 strain of P. falciparum; test: MAR3D7 growth inhibition assay (DNA dye); assay type: cell-based, Plasmodium falciparum; conditions: 72 h incubation
Experimental: as §1
(§2) Parasites were grown in Petri dishes in the presence of fresh group O-positive erythrocytes (hematocrit 4%–6%) in RPMI 1640 (pH 7.3) supplemented with 0.5% AlbuMAX II, 25 mM HEPES, 25 mM NaHCO3, 100 μg/mL hypoxanthine, and 5 μg/mL gentamycin. Cultures were incubated at 37 °C with 5% O2 and 5% CO2. Compounds were prepared as 10 mM stock solutions in DMSO (except compound 18) to measure EC50. The stock solutions were plated in 384-well plates, serially diluted (1:3) in DMSO. Compounds were then transferred to a 384-well assay plate containing 20 μL of RPMI 1640 with 5 μg/mL gentamycin by using a 384-head pin tool. […] Assay plates were incubated for 72 h and parasitemia was measured by using a previously described DNA stain-based assay. The MAR3D7 growth inhibition assay was used for the chloroquine-sensitive 3D7 strain of P. falciparum, and quantified growth by using DNA dyes. […] Growth was quantitated by using DNA dyes. […]

[4] = test system: K1 strain of P. falciparum; test: MARK1 growth inhibition assay (DNA dye); assay type: cell-based, Plasmodium falciparum; conditions: 72 h incubation
Experimental: as §1, §2

Compound	antimalarial activity (in words) [1]	in vivo antimalarial activity [2]	EC50 [3] [µM]	EC50 [4] [µM]
C[C@H]1CCC[C@@]23CC4C(C[C@]12C)C4(C)C3 [Compound 1, (2aS,6S,6aR)-1,6,6a-trimethyldecahydro-1,2a-methanocyclopropa[b]naphthalene]	promising antimalarial activity			
CC(C)=CCC/C(C)=C/CC/C(C)=C/CC[C@]1(C)CCc2cc(O)cc(C)c2O1 [Compound 3, δ-tocotrienol]	promising antimalarial activity			
CC[C@H](CC[C@@H](C)[C@H]1CC[C@H]2[C@@H]3CC=C4C[C@@H](O)CC[C@]4(C)[C@H]3CC[C@]12C)C(C)C [Compound 6, β-sitosterol]		active		
C[C@@H]1CC[C@]2(C(=O)O)CC[C@]3(C)C(=CC[C@@H]4[C@@]5(C)C[C@@H](O)[C@H](O)C(C)(C)[C@@H]5CC[C@]43C)[C@@H]2[C@]1(C)O [tormentic acid, reference compound]		active		
(3S,9S,10S,13R,17R)-17-((2R,5S,E)-5-ethyl-6-methylhept-3-en-2-yl)-9,10,13-trimethyl-2,3,4,7,8,9,10,11,12,13,14,15,16,17-tetradecahydro-1H-cyclopenta[a]phenanthren-3-ol [Compound 5]	promising antimalarial activity; also recorded: most potent compound lead		3	5
